From patent US7491705B2, “Alpha-ketoamide derivative, and production method and use thereof” (Senju Pharmaceutical Co., Ltd., priority 2003, dated 2009)
Converted amounts (≈) assume the structure as drawn.

Key:
Caco-2 cells = experiment: Permeability test with Caco-2 cells; details: apical pH 6.5 → basolateral pH 7.4; 10 μm sample; 37° C.
Method: (§1) As a culture medium for the incubation, Dulbecco's modified Eagle's minimum essential medium (GIBCO BRL) supplemented with 10% fetal calf serum (GIBCO BRL), antibiotic-antimycotic mixture, liquid (GIBCO BRL), non-essential amino acid solution (GIBCO BRL) and 2 mmol/L L-glutamine (GIBCO BRL) was used. […] Propranolol was used as a positive control, and ^14C-mannitol was used as a negative control. LC-MS/MS was used for quantitative analysis of samples, and a liquid scintillation counter was used for quantitative analysis of ^14C-mannitol.
(§2) Papp: apparent permeation coefficient (cm/sec)
δQ/δt: permeation velocity (pmol/min)
A: area of monolayer cell=0.33 cm^2
(§3) C0: initial concentration at apical membrane side (pmol/mL)

[1] = Solubility in 10 mM phosphate buffer (pH 7.0); format: physicochemical
Method: Solubility of the compounds of the present invention in 10 mM phosphate buffer (pH 7.0) was measured.

[2] = Partition coefficient using IAM column; format: physicochemical; details: IAM Fast Screening Mini-Column; Dulbecco's phosphate buffer (pH 7.4)
Method: Analysis by HPLC system was carried out under the conditions given below, and retention time of each substance was measured. • Column: IAM Fast Screening Mini-Column (Regis Technologies, Inc.) • Mobile phase: Dulbecco's phosphate buffer (pH 7.4) • Detection wavelength: 250 nm • Column temperature: room temperature • Injection amount: 5.0 to 20 μL • Flow rate: 0.5 mL/min • Sample solution: 5 mg of sample was dissolved in 100 μL of acetonitrile, and a mobile phase was added to make 1 mL of a sample solution.
The measured value was inserted into the following formula, and the partition coefficient (K′ IAM) was calculated. k′IAM=(tR−t0)/t0 t0: retention time of the peak derived from acetonitrile tR: retention time of the peak of the sample

[3] = Transportation rate into blood after oral administration; format: in vivo, Macaca fascicularis (crab-eating monkey); details: cynomolgus monkey, 10 mg/kg, Macaca fascicularis, plasma; for AUC(0-t): read-out: AUC 0→4 hr
Method: The compound of the present invention was administered orally to Macaca fascicularis (crab-eating monkey) at a dose of 10 mg/kg. The blood was collected with the lapse of time, and the concentration of each compound in the plasma was measured.

in vitro = details: human, Caco-2
Method: as §1, §2
δQ/δt: permeation velocity (pmol/min)
A: area of monolayer cell=0.33 cm^2
as §3

ganglion cells of retina = experiment: Rat retinal ischemia reperfusion injury; format: in vivo; details: 100 mg/Kg oral, 15 minutes before ischemia and immediately after release, 7 days after reperfusion, P<0.05 vs control
Method: Male SD rats (body weight: 150-200 g, purchased from Charles River Japan, Inc.) were used. For anesthesia, a mixture of equivalent amounts of 50 mg/mL ketamine injection and 20 mg/mL xylazine injection was administered intramuscularly at 1.0 mL/Kg body weight into the femora of the rats 15 minutes before ischemia. To achieve ischemia, the optic nerve including central retinal artery was ligated using a Sugita Clip minitype (No. 98), and the blood flow was blocked for 55 minutes. Such ligation was released 55 minutes after the above ligation, and blood flow was made to run again into retina (hereinafter, referred to as ischemia reperfusion). For normal group, central retinal artery was only exposed and ischemia was not set up. After 7 days from reperfusion in ischemia, a tissue specimen was prepared. For preparation of the tissue specimen, an excess amount of pentobarbital solution was intraperitoneally administered to sacrifice the animal, and eyeball was enucleated. The enucleated eyeball was dipped and fixed for 24 hours in a fixing solution of 2% paraformaldehyde and 2.5% glutaraldehyde (0.1 M phosphate buffer, pH 7.4). […] The stained sections were observed under an optical microscope, and ganglion cells of retina per 0.25 mm width of retina section at 1-2 mm from the center of the optic disc were counted. […]

Row | SMILES | Caco-2 Papp(a−b) (Caco-2 cells) | Solubility [1] [µg/mL] | IAM (Log k′IAM) [2] | Cmax [3] [nM] | AUC(0-t) [3] [µM·h] | Papp A→B at 10 μm (in vitro) [×10⁻⁶ cm/s] | Ganglion cell count after retinal ischemia reperfusion (ganglion cells of retina)
1 | OCC(O)C(O)C(O)C(O)[14CH2]O (centres unmarked) [^14C-Mannitol, ^14C-mannitol] | 0.6 (cms^−1) × 10^−6 | – | – | – | – | – | –
2 | COCCOC(=O)N[C@@H](CC(C)C)C(=O)N[C@@H](Cc1ccccc1)C(=O)C(=O)NC1CC1 [Compound 4, ((1S)-1-((((1S)-1-Benzyl-2,3-dioxo-3-(cyclopropylamino)propyl)amino)carbonyl)-3-methylbutyl)carbamic acid 2-methoxyethyl ester] | – | 1300 (≈ 2900 µM) | 1.20 | 1200 | 1.9 | 2.7 | –
3 | COCCOCCOC(=O)N[C@@H](CC(C)C)C(=O)N[C@@H](Cc1ccccc1)C(=O)C(=O)NC1CC1 [Compound 17, ((1S)-1-((((1S)-1-Benzyl-2,3-dioxo-3-(cyclopropylamino)propyl)amino)carbonyl)-3-methylbutyl)carbamic acid 5-methoxy-3-oxapentyl ester] | – | 650 (≈ 1320 µM) | 1.27 | 1100 | 2.4 | – | significantly suppressed the decrease
